Data taken from US9790536B2, “Methods for assaying alpha-L-iduronidase enzymatic activity” (University of Washington, priority 2007, dated 2017).

Molecular target: T1, α-L-iduronidase (IdA; EC 3.2.1.76) (Homo sapiens, UniProt P35475)
T1 construct: Incubation with IdA present in DBS leads to enzymatic release of the iduronyl group; from tissue; host or cells: dried blood spot (DBS) extract, 3-mm punch
T1 sequence (P35475 28-653): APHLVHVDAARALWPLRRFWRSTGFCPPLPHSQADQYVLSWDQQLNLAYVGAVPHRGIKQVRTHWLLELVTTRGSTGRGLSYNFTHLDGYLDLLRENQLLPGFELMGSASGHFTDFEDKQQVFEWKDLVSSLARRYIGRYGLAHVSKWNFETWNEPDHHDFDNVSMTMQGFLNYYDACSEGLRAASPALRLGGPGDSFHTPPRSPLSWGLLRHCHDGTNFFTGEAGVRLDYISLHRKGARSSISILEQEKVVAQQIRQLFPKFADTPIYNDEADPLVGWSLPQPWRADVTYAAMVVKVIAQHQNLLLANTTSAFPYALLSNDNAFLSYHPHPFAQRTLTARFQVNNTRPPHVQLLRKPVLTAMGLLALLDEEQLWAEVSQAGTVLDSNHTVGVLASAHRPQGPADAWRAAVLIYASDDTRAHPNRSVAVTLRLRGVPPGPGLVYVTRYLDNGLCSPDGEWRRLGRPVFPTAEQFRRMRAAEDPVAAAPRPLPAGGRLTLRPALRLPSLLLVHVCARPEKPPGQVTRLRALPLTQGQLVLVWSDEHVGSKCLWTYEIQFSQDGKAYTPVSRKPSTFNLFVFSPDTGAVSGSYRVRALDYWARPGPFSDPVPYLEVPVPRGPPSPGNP
Assay: ESI-MSMS assay of α-L-iduronidase enzymatic activity in dried blood spots (IdA-P formed as a function of IdA-S concentration)
Type: biochemical
Details: IdA in DBS extract; 37° C., 20 h; IdA-S 0 to 0.67 mmol/L; fit to Michaelis-Menten equation (FIG. 7)
Protocol: A representative method of the invention for assaying α-L-iduronidase enzymatic activity by tandem mass spectrometry is described in Example 3. […] The amount of IdA-P increases linearly with incubation time from 0 to 30 h (FIG. 6); 20 h was chosen as the standard incubation time for the assay described in Example 3. The amount of IdA-P formed at 20 h increased in a hyperbolic fashion as the concentration of IdA-S increased from 0 to 0.67 mmol/L, and Km was determined to be 0.2 mmol/L (FIG. 7). An IdA-S concentration of 0.5 mmol/L was chosen in order to be under saturation conditions. The amount of IdA-P increases with the surface area of added DBS (FIG. 8), with a plateau reached at higher blood amounts (presumably due to the presence of endogenous inhibitors in the DBS). In one embodiment, the method uses a 3-mm-DBS punch.
A single 3-mm diameter DBS (containing ˜3.6 μL of blood) was obtained with a leather punch and was placed in a 1-mL Eppendorf tube. Extraction buffer [160 μL of 0.1 mol/L sodium formate pH 3.4 containing 75 μmol/L D-saccharic acid 1,4-lactone (Sigma); storage at −20° C.] was added to the tube. […]
Extraction of IdA-P and IdA-IS from the enzymatic reaction and blank was performed by addition of 250 μL of ethyl acetate. […] The sample was analyzed within the first 45 seconds of infusion, and after 1 min, the MSMS signal has returned to the background level. […]

In the case of CC(C)(C)OC(=O)NCCCCNC(=O)Cc1cc(=O)oc2cc(O[C@@H]3O[C@@H](C(=O)O)[C@@H](O)[C@H](O)[C@H]3O)ccc12 [IdA-S, (N-[4″-(tert-butoxycarbonylamino)-butyl]) 7-O-(α-L-idopyranosyluronic acid)coumarin-4-acetamide], the Km is reported as 200 µM.
